Data on five molecules can be found in publication PMC11252457 (Acta Pharmaceutica Sinica. B, 2024).

The test system of data set [1] is HIV-1 RES056 (K103N/Y181C). Description: microbe, parasite or virus in culture. The following applies: for EC50: Human immunodeficiency virus 1, MT4, read-out: EC50 RES056; for SI RES056: ratio of CC50/EC50, RES056. In kind it is cell-based.
Data set [2] has as its system HIV-1 mutant strain E138K. Description: microbe, parasite or virus in culture. The following applies: Human immunodeficiency virus 1, MT4, read-out: EC50 E138K. It is filed as cell-based.
Data set [3] deals with HIV-1 mutant strain K103N. Description: microbe, parasite or virus in culture. The settings on record: Human immunodeficiency virus 1, MT4, read-out: EC50 K103N. In kind it is cell-based.
The subject of data set [4] is WT HIV-1 (IIIB). Description: microbe, parasite or virus in culture. It is filed as cell-based. The settings on record: for EC50: Human immunodeficiency virus 1, IIIB, MT4, read-out: EC50 IIIB; for SI IIIB: ratio of CC50/EC50, IIIB.
Data set [5] has as its system HIV-1 mutant strain L100I. Description: microbe, parasite or virus in culture. In kind it is cell-based. The following applies: Human immunodeficiency virus 1, MT4, read-out: EC50 L100I.
The test system of data set [6] is HIV-1 mutant strain Y188L. Description: microbe, parasite or virus in culture. The following applies: Human immunodeficiency virus 1, MT4, read-out: EC50 Y188L. It is filed as cell-based.
Data set [7] concerns HIV-1 mutant strain Y181C. Description: microbe, parasite or virus in culture. In kind it is cell-based. The following applies: Human immunodeficiency virus 1, MT4, read-out: EC50 Y181C.
In data set [8] the test system is HIV-1 double mutant strain F227L/V106A. Description: microbe, parasite or virus in culture. It is filed as cell-based. The following applies: Human immunodeficiency virus 1, MT4, read-out: EC50 F227L/V106A.
The nature of data set [9]: Cytotoxicity in mock-infected MT-4 cells. The following applies: human.

The structures appear in SMILES notation.

Consider `Cc1cc(/C=C/C#N)cc(C)c1Oc1nc(NC2CCN(Cc3ccc(P(=O)(OC(C)C)OC(C)C)cc3)CC2)nc2ccsc12` [15f, Diisopropyl (E)-(4-((4-((4-(4-(2-cyanovinyl)-2,6-dimethylphenoxy)thieno[3,2-d]pyrimidin-2-yl)amino)piperidin-1-yl)methyl)phenyl)phosphonate], for which the EC50 in [1] was found to be 401 ± 321 nM; in data set [2] it was 162 ± 35.8 nM; in data set [3] it was 41 ± 7.63 nM; in data set [4], 29.2 ± 9.12 nM; in data set [5], 56.1 ± 13.2 nM; in data set [6], 195 ± 32.3 nM. For the same molecule, the results for the EC50 in data set [7] and in [8] were 156 ± 59 nM and 79.3 ± 13 nM, respectively. The “SI RES056” value in data set [1] is on record as 11. In addition, in data set [4], the “SI IIIB” value is 152. Moreover, the CC50 (as a rule, the concentration giving 50% cytotoxicity) at 5 days in [9] is 4450 ± 570 nM.

In the case of `Cc1cc(C#N)cc(C)c1Oc1nc(NC2CCN(Cc3ccc(P(=O)(O)O)cc3)CC2)nc2ccsc12` [compound 10, (4-((4-((4-(4-Cyano-2,6-dimethylphenoxy)thieno[3,2-d]pyrimidin-2-yl)amino)piperidin-1-yl)methyl)phenyl)phosphonic acid], the EC50 is greater than 227000 nM in [1]; 160000 nM in [2]; 147000 nM in data set [3]; 16500 nM in data set [4]; greater than 227000 nM in data set [5]; greater than 227000 nM in data set [6]. Besides, the EC50 in data set [7] and in [8] was greater than 227000 nM throughout. For the same molecule, the “SI RES056” value in [1] is recorded as less than 1. The “SI IIIB” value in data set [4] was greater than 14. The CC50 at 5 days in [9] was greater than 227000 nM.

As for `Cc1cc(/C=C/C#N)cc(C)c1Oc1nc(NC2CCN(Cc3ccc(P(=O)(OC(C)(C)C)OC(C)(C)C)cc3)CC2)nc2ccsc12` [15g, Di-tert-butyl (E)-(4-((4-((4-(4-(2-cyanovinyl)-2,6-dimethylphenoxy)thieno[3,2-d]pyrimidin-2-yl)amino)piperidin-1-yl)methyl)phenyl)phosphonate], the EC50 amounted to 197 ± 30.5 nM in data set [1]; 59.7 ± 13.1 nM in data set [2]; 16.9 ± 7.68 nM in data set [3]; 20.6 ± 8.31 nM in [4]; 25.8 ± 15.8 nM in [5]; 55.3 ± 22.2 nM in [6]. The EC50 in data set [7] stood at 46.4 ± 7.56 nM; in [8], 43.7 ± 7.52 nM. Also, the “SI RES056” value in [1] was found to be 38. Further, the “SI IIIB” value in data set [4] is 359. Moreover, in [9], it took 7400 ± 2250 nM to reach half-maximal cytotoxicity (CC50 at 5 days).

With `CCCCOP(=O)(OCCCC)c1ccc(CN2CCC(Nc3nc(Oc4c(C)cc(C#N)cc4C)c4sccc4n3)CC2)cc1` [9d, Dibutyl (4-((4-((4-(4-cyano-2,6-dimethylphenoxy)thieno[3,2-d]pyrimidin-2-yl)amino)piperidin-1-yl)methyl)phenyl)phosphonate], the EC50 is 6500 ± 483 nM in data set [1]; 241 ± 34.9 nM in data set [2]; 196 ± 13.6 nM in data set [3]; 125 ± 39 nM in data set [4]; 230 ± 54 nM in data set [5]; 240 ± 58.3 nM in data set [6]. Besides, the EC50 amounted to 311 ± 50.4 nM in data set [7] and 248 ± 37.3 nM in [8]. Moreover, the “SI RES056” value in data set [1] is reported as 1. Further, the “SI IIIB” value in data set [4] is given as 62. Further, the CC50 at 5 days in data set [9] stood at 7800 ± 1530 nM.

On to `COP(=O)(OC)c1ccc(CN2CCC(Nc3nc(Oc4c(C)cc(/C=C/C#N)cc4C)c4sccc4n3)CC2)cc1` [15b, Dimethyl (E)-(4-((4-((4-(4-(2-cyanovinyl)-2,6-dimethylphenoxy)thieno[3,2-d]pyrimidin-2-yl)amino)piperidin-1-yl)methyl)phenyl)phosphonate], for which the EC50 in [1] was 603 ± 139 nM; in data set [2], 64.5 ± 31.7 nM; in data set [3], 13 ± 3.8 nM; in data set [4], 19.1 ± 13.9 nM; in [5], 85.7 ± 28 nM; in [6], 478 ± 158 nM. Moreover, the figures for the EC50 in data set [7] and in [8] were 193 ± 74.8 nM and 129 ± 83.3 nM, respectively. Besides, in data set [1], the “SI RES056” value was found to be 58. Besides, the “SI IIIB” value in data set [4] turned out to be 1827. In [9], this molecule gave a CC50 at 5 days of 34900 ± 2860 nM.
